Data from patent US11944614B2, “Imidazo[4,5-c]pyridine compounds as LSD-1 inhibitors” (THE REGENTS OF THE UNIVERSITY OF MICHIGAN, priority 2018, dated 2024).
pIC50: −log10 of the molar value.

Target: Human recombinant LSD1 protein (Homo sapiens (Human), UniProt O60341)
Assay: LSD1 enzymatic activity, AlphaLISA demethylation assay
Assay type: biochemical
Settings: 4 nM LSD1, 80 nM Biotin-H3K4Me peptide substrate, 1% DMSO, 60 minutes reaction
Experimental: Human recombinant LSD1 protein expressed in E. coli cells was purchased from Active Motif (Carlsbad, Calif.). Biotin-labeled Histone H3K4Me peptide (residues 1-21 with Lys 4 monomethylated) substrate was purchased from Anaspec (Fremont, Calif.). Enzymatic activity was assessed using the AlphaLISA technology from Perkin Elmer Life Sciences (Waltham, Mass.). 2.5 μL of compound solution and 5 μL of LSD1 solutions in the assay buffer (50 mM Tris, pH 9.0, 50 mM NaCl with 0.01% Tween20 and 1 mM DTT added right before the assay) were added into a white low volume 384 well microtiter plate. This mixture solution was incubated for 15 minutes with gentle shaking at room temperature. Demethylation reaction was initiated by adding 2.5 μL of Biotin-H3K4Me peptide substrate solution in the assay buffer. Final concentrations of LSD1, Biotin-H3K4Me peptide substrate, and DMSO were 4 nM, 80 nM, and 1%, respectively. The reaction was allowed to proceed for 60 minutes in dark with gentle shaking at room temperature, after which 5 μL of Anti-H3K4 AlphaLISA acceptor beads in detection buffer from the manufacturer was added into the reaction mixture followed by incubation for 60 minutes. 10 μL of Streptavidin labeled AlphaLISA donor beads in detection buffer was added into the mixture followed by 30-minute incubation. Final acceptor and donor beads concentrations were both at 10 μg/mL. Plates were read on a BMG CLARIOStar multimode plate reader from BMG Labtech (Ortenberg, Germany) with an excitation wavelength of 680 nm and emission wavelength of 615 nm. IC50 values of inhibitors were obtained by fitting the fluorescence intensity vs inhibitor concentrations in a sigmoidal dose-response curve (variable slope) with a non-linear regression using Prism 7 (La Jolla, Calif.).

CN1CCC(Cn2cnc3c(-c4ccc(C#N)c(F)c4)c(-c4ccc5c(cnn5C)c4)ncc32)CC1 [Cpd. No. 1, 2-fluoro-4-(6-(1-methyl-1H-indazol-5-yl)-3-((1-methylpiperidin-4-yl)methyl)-3H-imidazo[4,5-c]pyridin-7-yl)benzonitrile] and CN1CC[C@H](Cn2cnc3c(-c4ccc(C#N)c(F)c4)c(-c4ccc5c(cnn5C)c4)ncc32)C1 [compound 16, (S)-2-fluoro-4-(6-(1-methyl-1H-indazol-5-yl)-3-((1-methylpyrrolidin-3-yl)methyl)-3H-imidazo[4,5-c]pyridin-7-yl)benzonitrile] are within 0.2 log units of each other in pIC50: 7.40 for the first, 7.55 for the second.

Cn1ncc2cc(-c3ncc4c(ncn4CC4CCNCC4)c3-c3ccc(C#N)c(F)c3)ccc21 [Cpd. No. 19, 2-fluoro-4-(6-(1-methyl-1H-indazol-5-yl)-3-(piperidin-4-ylmethyl)-3H-imidazo[4,5-c]pyridin-7-yl)benzonitrile] and Cn1ncc2cc(-c3ncc4c(ncn4CC4CCCNCC4)c3-c3ccc(C#N)c(F)c3)ccc21 (stereo not shown) [compound 21, 4-(3-(azepan-4-ylmethyl)-6-(1-methyl-1H-indazol-5-yl)-3H-imidazo[4,5-c]pyridin-7-yl)-2-fluorobenzonitrile] are within 0.2 log units of each other in pIC50: 7.93 for the first, 7.76 for the second.

First: CN1CCC(Cn2cnc3c(-c4ccc(C#N)c(F)c4)c(-c4ccc5c(ccn5C)c4)ncc32)CC1 [compound 2, 2-fluoro-4-(6-(1-methyl-1H-indol-5-yl)-3-((1-methylpiperidin-4-yl)methyl)-3H-imidazo[4,5-c]pyridin-7-yl)benzonitrile]
Second: CN1CCC(Cn2cnc3c(-c4ccc(C#N)c(F)c4)c(-c4ccc5nn(C)cc5c4)ncc32)CC1 [compound 12, 2-fluoro-4-(6-(2-methyl-2H-indazol-5-yl)-3-((1-methylpiperidin-4-yl)methyl)-3H-imidazo[4,5-c]pyridin-7-yl)benzonitrile]
The pIC50 of the first is 0.38 log units lower: 6.63 for the first, 7.01 for the second.

Going from CN1CCC(Cn2cnc3c(-c4ccc(C#N)c(F)c4)c(-c4ccc5c(c4)CC(=O)N5C)ncc32)CC1 [compound 3, 2-fluoro-4-(6-(1-methyl-2-oxoindolin-5-yl)-3-((1-methylpiperidin-4-yl)methyl)-3H-imidazo[4,5-c]pyridin-7-yl)benzonitrile] to CN1CCC(Cn2cnc3c(-c4ccc(C#N)c(F)c4)c(-c4ccc5c(c4)OCCN5C)ncc32)CC1 [compound 8, 2-fluoro-4-(6-(4-methyl-3,4-dihydro-2H-benzo[b][1,4]oxazin-7-yl)-3-((1-methylpiperidin-4-yl)methyl)-3H-imidazo[4,5-c]pyridin-7-yl)benzonitrile], the pIC50 rises from 6.66 to 7.79 (1.13 log units).

Compared with CCn1ncc2cc(-c3ncc4c(ncn4CC4CCN(C)CC4)c3-c3ccc(C#N)c(F)c3)ccc21 [compound 4, 4-(6-(1-ethyl-1H-indazol-5-yl)-3-((1-methylpiperidin-4-yl)methyl)-3H-imidazo[4,5-c]pyridin-7-yl)-2-fluorobenzonitrile], CCn1ncc2cc(-c3ncc4c(ncn4CC4CCN(C)CC4)c3-c3ccc(C#N)cc3)ccc21 [compound 11, 4-(6-(1-ethyl-1H-indazol-5-yl)-3-((1-methylpiperidin-4-yl)methyl)-3H-imidazo[4,5-c]pyridin-7-yl)benzonitrile] is 0.50 log units higher in pIC50: 6.43 for the first, 6.93 for the second.

Compared with Cc1nc2cc(-c3ncc4c(ncn4CC4CCN(C)CC4)c3-c3ccc(C#N)c(F)c3)ccc2s1 [compound 5, 2-fluoro-4-(6-(2-methylbenzo[d]thiazol-5-yl)-3-((1-methylpiperidin-4-yl)methyl)-3H-imidazo[4,5-c]pyridin-7-yl)benzonitrile], CN1CCC(Cn2cnc3c(-c4ccc(C#N)c(F)c4)c(-c4ccc5c(c4)OCO5)ncc32)CC1 [compound 15, 4-(6-(benzo[d][1,3]dioxol-5-yl)-3-((1-methylpiperidin-4-yl)methyl)-3H-imidazo[4,5-c]pyridin-7-yl)-2-fluorobenzonitrile] is 1.53 log units higher in pIC50: 6.03 for the first, 7.56 for the second. The second is the more potent here.

CN1CCC(Cn2cnc3c(-c4ccc(C#N)cc4)c(-c4ccc5c(cnn5C)c4)ncc32)CC1 [compound 6, 4-(6-(1-methyl-1H-indazol-5-yl)-3-((1-methylpiperidin-4-yl)methyl)-3H-imidazo[4,5-c]pyridin-7-yl)benzonitrile] and CN1CCC(Cn2cnc3c(-c4ccc(C#N)cc4)c(-c4ccc5c(ccn5C)c4)ncc32)CC1 [compound 7, 4-(6-(1-methyl-1H-indol-5-yl)-3-((1-methylpiperidin-4-yl)methyl)-3H-imidazo[4,5-c]pyridin-7-yl)benzonitrile] are within 0.2 log units of each other in pIC50: 7.18 for the first, 7.17 for the second.

Compared with CN1CCC(Cn2cnc3c(-c4ccc(C#N)cc4)c(-c4ccc(C#N)cc4)ncc32)CC1 [compound 9, 4,4′-(3-((1-methylpiperidin-4-yl)methyl)-3H-imidazo[4,5-c]pyridine-6,7-diyl)dibenzonitrile], CN1CCC(Cn2cnc3c(-c4ccc(C#N)cc4)c(-c4ccc5nn(C)cc5c4)ncc32)CC1 [compound 13, 4-(6-(2-methyl-2H-indazol-5-yl)-3-((1-methylpiperidin-4-yl)methyl)-3H-imidazo[4,5-c]pyridin-7-yl)benzonitrile] is higher in pIC50: under 6.00 for the first, 6.94 for the second.

Going from CN1CCC(Cn2cnc3c(-c4ccc(C#N)cc4)c(-c4ccc5c(c4)OCCN5C)ncc32)CC1 [compound 10, 4-(6-(4-methyl-3,4-dihydro-2H-benzo[b][1,4]oxazin-7-yl)-3-((1-methylpiperidin-4-yl)methyl)-3H-imidazo[4,5-c]pyridin-7-yl)benzonitrile] to CN1CCOc2cc(-c3ncc4c(ncn4CC4CCNCC4)c3-c3ccc(C#N)cc3)ccc21 [compound 26, 4-(6-(4-methyl-3,4-dihydro-2H-benzo[b][1,4]oxazin-7-yl)-3-(piperidin-4-ylmethyl)-3H-imidazo[4,5-c]pyridin-7-yl)benzonitrile], the pIC50 rises from 7.28 to 7.83 (0.55 log units). The second is the more potent here.

CN1CCC(Cn2cnc3c(-c4ccc(C#N)cc4)c(-c4ccc5c(c4)OCO5)ncc32)CC1 [compound 14, 4-(6-(benzo[d][1,3]dioxol-5-yl)-3-((1-methylpiperidin-4-yl)methyl)-3H-imidazo[4,5-c]pyridin-7-yl)benzonitrile] and CN1CCOc2cc(-c3ncc4c(ncn4CC4CCCNCC4)c3-c3ccc(C#N)cc3)ccc21 (stereo not shown) [compound 24, 4-(3-(azepan-4-ylmethyl)-6-(4-methyl-3,4-dihydro-2H-benzo[b][1,4]oxazin-7-yl)-3H-imidazo[4,5-c]pyridin-7-yl)benzonitrile] are within 0.2 log units of each other in pIC50: 7.80 for the first, 7.96 for the second.

CN1CCOc2cc(-c3ncc4c(ncn4C[C@H]4CCNC4)c3-c3ccc(C#N)c(F)c3)ccc21 [compound 17, (S)-2-fluoro-4-(6-(4-methyl-3,4-dihydro-2H-benzo[b][1,4]oxazin-7-yl)-3-(pyrrolidin-3-ylmethyl)-3H-imidazo[4,5-c]pyridin-7-yl)benzonitrile] and CN1CCOc2cc(-c3ncc4c(ncn4CC4CCNCC4)c3-c3ccc(C#N)c(F)c3)ccc21 [compound 25, 2-fluoro-4-(6-(4-methyl-3,4-dihydro-2H-benzo[b][1,4]oxazin-7-yl)-3-(piperidin-4-ylmethyl)-3H-imidazo[4,5-c]pyridin-7-yl)benzonitrile] are within 0.2 log units of each other in pIC50: 7.92 for the first, 8.10 for the second.

CN1CC[C@H](Cn2cnc3c(-c4ccc(C#N)c(F)c4)c(-c4ccc5c(c4)OCCN5C)ncc32)C1 [compound 18, (S)-2-fluoro-4-(6-(4-methyl-3,4-dihydro-2H-benzo[b][1,4]oxazin-7-yl)-3-((1-methylpyrrolidin-3-yl)methyl)-3H-imidazo[4,5-c]pyridin-7-yl)benzonitrile] and CN1CCOc2cc(-c3ncc4c(ncn4CC4CCCNCC4)c3-c3ccc(C#N)c(F)c3)ccc21 (stereo not shown) [compound 23, 4-(3-(azepan-4-ylmethyl)-6-(4-methyl-3,4-dihydro-2H-benzo[b][1,4]oxazin-7-yl)-3H-imidazo[4,5-c]pyridin-7-yl)-2-fluorobenzonitrile] are within 0.2 log units of each other in pIC50: 7.92 for the first, 7.89 for the second.

Cn1ncc2cc(-c3ncc4c(ncn4CC4CCNCC4)c3-c3ccc(C#N)cc3)ccc21 [compound 20, 4-(6-(1-methyl-1H-indazol-5-yl)-3-(piperidin-4-ylmethyl)-3H-imidazo[4,5-c]pyridin-7-yl)benzonitrile] and Cn1ncc2cc(-c3ncc4c(ncn4CC4CCCNCC4)c3-c3ccc(C#N)cc3)ccc21 (stereo not shown) [compound 22, 4-(3-(azepan-4-ylmethyl)-6-(1-methyl-1H-indazol-5-yl)-3H-imidazo[4,5-c]pyridin-7-yl)benzonitrile] are within 0.2 log units of each other in pIC50: 7.86 for the first, 7.79 for the second.

First: Cn1ccc2cc(-c3ncc4c(ncn4C[C@H]4CCNC4)c3-c3ccc(C#N)c(F)c3)cnc21 [compound 27, (S)-2-fluoro-4-(6-(1-methyl-1H-pyrrolo[2,3-b]pyridin-5-yl)-3-(pyrrolidin-3-ylmethyl)-3H-imidazo[4,5-c]pyridin-7-yl)benzonitrile]
Second: N#Cc1ccc(-c2c(-c3ccc4c(c3)OCCO4)ncc3c2ncn3C[C@H]2CCNC2)cc1F [compound 28, (S)-4-(6-(2,3-dihydrobenzo[b][1,4]dioxin-6-yl)-3-(pyrrolidin-3-ylmethyl)-3H-imidazo[4,5-c]pyridin-7-yl)-2-fluorobenzonitrile]
The pIC50 of the first is 0.75 log units lower: 7.27 for the first, 8.02 for the second.
